Where two headings read alike, the source gives them in different places.
Assays:
[1] = tested on: Pseudomonas aeruginosa; assay: MIC and MBC antibacterial test; format: cell-based; conditions: 30 °C; for MIC: 24 h
Protocol: (§1) All complexes were tested for antibacterial activity against both […] bacteria. The antibacterial function of complexes, represented as the diameter of the growth-inhibition region in millimeters, is shown in Figure 8. The minimum inhibitory concentration (MIC) and minimum bactericidal concentration (MBC) of complexes needed to inhibit bacterial growth are presented in Table 4. The MBC is identified by the determination of the lowest concentration of antibacterial agents that reduces the viability of the initial bacterial inoculum by a predetermined reduction of 99.9%. The value agreed on in two or more occasions was adopted as the MIC or MBC strain. Chloramphenicol was used for control purposes. From the inhibition zone, as well as the MIC and MBC data, one can conclude the following: Firstly, both complexes were active, but the activity was less than that for the normal drug (chloramphenicol).
(§2) The synthesized complexes were tested against both […] bacteria for antibacterial activity. The bacteria were incubated by shaking in the thermostat at 30 °C overnight. At this stage, a loop of each culture was placed in 10 mL of 10-fold diluted broth, and the test bacteria cultures containing 10^5 mL^−1 cells were used for antimicrobial testing. […] MIC and MBC as recommended by the NCCLS (National Committee for Clinical Laboratory Standards, Albany, NY, USA). After 24 h of incubation, the MIC was read at 30 °C equivalent to the concentration of the tube without visible growth to measure the effect of decreased antibiotic/antiseptic concentrations over a defined period of time on the inhibition of microbial population growth. These assessments may be quite useful during the R&D phase of the product to determine the appropriate concentrations required in the final product, since the concentration of the drug required to produce the effect is normally several hundreds to thousands of times lower than the concentration found in the completed dosage form.

[2] = tested on: Staphylococcus aureus; assay: MIC and MBC antibacterial test; format: cell-based; conditions: 30 °C; for MIC: 24 h
Protocol: as §1, §2

[3] = tested on: Enterococcus; assay: MIC and MBC antibacterial test; format: cell-based; conditions: 30 °C; for MIC: 24 h
Protocol: as §1, §2

[4] = target: T1, BSA (Bos taurus, UniProt P02769); assay: Fluorescence quenching of BSA (Stern–Volmer); conditions: for KSV (called binding constants in conclusions) / Kq: temperature not stated
[5] = target: T1, BSA; conditions: T = 298 K
Excerpt: The Förster resonance energy transfer (FRET) mechanism allows the excitation energy to be passed from the donor to the acceptor without photon emission from the former molecular system. According to the FRET principle, the rate of energy transfer depends on the distance between the donor and the acceptor, the orientation of the donor and the acceptor dipoles, and the degree of overlap between the donor emission spectrum and the acceptor absorption spectrum. Energy transfer efficiency (E) can be used to evaluate the distance (r) between zinc complexes (acceptor) and BSA (donor) in protein using Equation (8), (8) E=1−F/F0=R06/R06+r^6 where F and F0 are the fluorescence intensity of BSA in the presence and absence of the acceptor, respectively, r is the distance between the acceptor and donor, R0 is the critical distance for 50% energy transfer and can be calculated using Equation (9), (9) R06=8.8×10^−25K^2N^−4∅J where the spatial orientation factor of the dipole K^2 = 2/3, the refractive index of the medium (water) N = 1.333, and the fluorescence quantum yield of the donor BSA ∅ = 0.15 [10, 38]. The spectral overlap integral (J), calculated from the overlap of the acceptor UV absorption spectra with the donor fluorescence emission spectra, is given using Equation (10). (10) J=∫0∞Fλε λλ^4dλ/∫0∞Fλdλ

[6] = target: T1, BSA; conditions: for ΔHº / ΔSº: 288–308 K
Protocol: The association constants and number of binding sites between the zinc complexes and BSA were calculated according to Equation (4). (4) logF0−F/F=logKA+nlogQ
In general, ΔGº reflects the spontaneity of the reaction, whereas ΔHº and ΔSº are the main quantities for determining the binding force. The thermodynamic parameters of ΔHº and ΔSº were calculated using Equation (5), and the Gibbs free energy was estimated from Equation (6). lnKA = −ΔHº/RT + ΔSº/R(5) ΔGº = ΔHº − TΔSº = −RT ln KA(6)

[7] = Dynamic light scattering size distribution of self-assembled adducts in water; format: physicochemical; conditions: DLS, room temperature
[8] = target: T1, BSA; assay: Cyclic voltammetry of BSA with zinc complexes; conditions: for BSA cathodic peak potential after addition of complex: BSA alone approximately −0.39 V, water, Ag/AgCl reference; for kR/kO binding constants: reduced over oxidized form
Protocol: Cyclic voltammograms of BSA in water in the presence and absence of zinc complexes were used for a voltammetric study.
The optical absorptions were performed using a 1.0 cm quartz cell on a JASCO spectrophotometer (V-780). Fluorescence measurements were carried out using the JASCO spectrofluorometer (FP-8300 model). The excitation wavelength was set at 280 nm, and the wavelength of the emission was set to 285–600 nm. Picosecond fluorescence decay profiles were measured using the FluoTime 300 (Pico Quant, Berlin, Germany) by the single-photon counting method. Lifetimes were evaluated using software supplied with the instrument. The time-resolved fluorescence instrumentation was the same as for steady-state experiments. Cyclic voltammograms were carried out on a Gamry setup with a carbon working electrode and a platinum wire as a counter electrode. A silver–silver chloride (Ag/AgCl) electrode was used as a reference electrode. All tests were carried out in oxygen-free solutions, and sodium sulfate was used as an electrolyte support. Dynamic light scattering (DLS) was used to determine the distribution profile of the particle size in the solution.

[9] = tested on: Escherichia coli; assay: MIC and MBC antibacterial test; format: cell-based; conditions: 30 °C
Protocol: as §1, §2

T1 sequence (P02769 25-607): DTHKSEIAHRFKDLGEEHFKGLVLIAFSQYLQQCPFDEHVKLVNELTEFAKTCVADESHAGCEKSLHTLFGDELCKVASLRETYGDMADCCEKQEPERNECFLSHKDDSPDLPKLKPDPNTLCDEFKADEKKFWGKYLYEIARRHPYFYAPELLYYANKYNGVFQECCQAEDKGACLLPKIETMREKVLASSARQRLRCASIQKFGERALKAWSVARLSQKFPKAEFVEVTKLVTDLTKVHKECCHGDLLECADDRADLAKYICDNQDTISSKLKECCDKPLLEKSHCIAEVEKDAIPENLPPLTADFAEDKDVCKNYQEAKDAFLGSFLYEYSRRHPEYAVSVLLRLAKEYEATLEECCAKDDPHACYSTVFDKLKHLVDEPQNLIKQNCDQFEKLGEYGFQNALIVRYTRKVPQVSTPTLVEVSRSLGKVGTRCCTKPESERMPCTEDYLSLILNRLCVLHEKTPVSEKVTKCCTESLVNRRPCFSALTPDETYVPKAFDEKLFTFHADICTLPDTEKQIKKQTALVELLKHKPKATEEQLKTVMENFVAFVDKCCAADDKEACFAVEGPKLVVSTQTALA

| MIC [1] [µg/mL] | MIC [2] [µg/mL] | MIC [3] [µg/mL] | Kq (quenching rate constant) ([4]; T = 288 K) | Ksv (Stern–Volmer quenching constant) ([4]; T = 288 K) | Kq (quenching rate constant) ([4]; T = 298 K) | Ksv (Stern–Volmer quenching constant) ([4]; T = 298 K) | Kq (quenching rate constant) ([4]; T = 318 K) | Ksv (Stern–Volmer quenching constant) ([4]; T = 318 K) | KSV (called binding constants in conclusions) [4] [M⁻¹] | Kq [4] [M⁻¹ s⁻¹] | J (spectral overlap integral) [5] | R0 (critical distance for 50% energy transfer) [5] [nm] | r (distance between acceptor and donor) [5] [nm] | ∫F donor λ Δλ [5] | ΔHº [6] [kcal/mol] | ΔSº [6] [J mol^−1 K^−1] | SMILES | MBC [1] [µg/mL] | MBC [2] [µg/mL] | MBC [3] [µg/mL] | also measured |
| --- | --- | --- | --- | --- | --- | --- | --- | --- | --- | --- | --- | --- | --- | --- | --- | --- | --- | --- | --- | --- | --- |
| 15.0 | 15.0 | 30.0 | 0.150 10^14 M^−1 s^−1 | 0.69 10^5 M^−1 | 0.153 10^14 M^−1 s^−1 | 0.70 10^5 M^−1 | 0.155 10^14 M^−1 s^−1 | 0.71 10^5 M^−1 | 70000 | 1.5e+13 | 5.4 10^−13 L mol^−1 cm^3 | 2.31 | 3.67 | 90.0 | 15.5 ± 0.48 | 304 ± 6 | CC(Nc1cc(C(C)(C)C)cc(C(C)(C)C)c1[S-])c1cccc(C(C)Nc2cc(C(C)(C)C)cc(C(C)(C)C)c2[S-])n1.[Zn+2] (centres unmarked) [DBZH4, [Zn(py^tBuN2H4Me2S2)]] | 30.0 | 30.0 | 60.0 | KA (association constant) ([6]; T = 288 K): 0.13 10^5 M^−1; n (number of binding sites) ([6]; T = 288 K): 1.22; ΔGº ([6]; T = 288 K): -5.4 ± 0.072 kcal/mol; KA (association constant) ([6]; T = 298 K): 0.31 10^5 M^−1; n (number of binding sites) ([6]; T = 298 K): 1.40; ΔGº ([6]; T = 298 K): -6.12 ± 0.048 kcal/mol; KA (association constant) ([6]; T = 308 K): 0.76 10^5 M^−1; n (number of binding sites) ([6]; T = 308 K): 1.42; ΔGº ([6]; T = 308 K): -6.84 ± 0.048 kcal/mol; n (number of binding sites) ([6]; all temperatures): ~1; mean size of self-assembled adduct with BSA [7]: 339 nm; size range of self-assembled adduct with BSA [7]: 100–1000 nm; BSA cathodic peak potential after addition of complex [8]: −0.57 V; kR/kO binding constants [8]: 0.48 |
| 12.5 | 12.5 | 25.0 | 4.15 10^14 M^−1 s^−1 | 19.0 10^5 M^−1 | 5.40 10^14 M^−1 s^−1 | 24.7 10^5 M^−1 | 5.97 10^14 M^−1 s^−1 | 27.3 10^5 M^−1 | 2.47e+06 | 5.4e+14 | 9.0 10^−13 L mol^−1 cm^3 | 2.51 | 3.21 | 79.6 | 10 ± 2.39 | 261 ± 35 | CC(=Nc1cc(C(C)(C)C)cc(C(C)(C)C)c1[S-])c1cccc(C(C)=Nc2cc(C(C)(C)C)cc(C(C)(C)C)c2[S-])n1.[Zn+2] [DBZ, [Zn(py^tBuN2Me2S2)]] | 25.0 | 25.0 | 50.0 | MBC [9]: 50.0 µg/mL; MIC ([9]; 24 h): 25.0 µg/mL; DBZ binds to BSA more than DBZH4 ([4]; ratio of KSV, DBZ over DBZH4): ~30 fold; DBZ binds stronger than DBZH4 ([4]; ratio of binding constants, conclusions): about 35 times; KA (association constant) ([6]; T = 288 K): 9.9 10^5 M^−1; n (number of binding sites) ([6]; T = 288 K): 1.12; ΔGº ([6]; T = 288 K): -7.93 ± 0.019 kcal/mol; KA (association constant) ([6]; T = 298 K): 22.8 10^5 M^−1; n (number of binding sites) ([6]; T = 298 K): 1.32; ΔGº ([6]; T = 298 K): -8.56 ± 0.096 kcal/mol; KA (association constant) ([6]; T = 308 K): 30.7 10^5 M^−1; n (number of binding sites) ([6]; T = 308 K): 1.45; ΔGº ([6]; T = 308 K): -9.18 ± 0.19 kcal/mol; n (number of binding sites) ([6]; all temperatures): ~1; mean size of self-assembled adduct with BSA [7]: 110 nm; BSA cathodic peak potential after addition of complex [8]: −0.55 V; kR/kO binding constants [8]: 0.43 |
